Where no end group is shown, it is not given here.

The source of these data is patent US20260234185A1, “ANTI-AGING COMPOSITION COMPRISING PEPTIDE COMPLEX AS ACTIVE INGREDIENT” (priority 2023, published 2026).

For this assay, the system named is AMP-activated protein kinase (AMPK). In words: Western blot of AMPK phosphorylation in adipocytes. It counts as cell-based. As to conditions: differentiated 3T3-L1 adipocytes; 0.2, 2, 20 μg/mL; 1 hour; Western blot (FIGS. 1a, 1b). The procedure:
An experiment was performed to determine whether the peptide complex prepared in Preparation Example 1 using adipocytes increases the phosphorylation of AMP-activated protein kinase (AMPK), which is a longevity-related protein, and increases the expression levels of sirtuin 1 (SIRT1) and fibroblast growth factor 21 (FGF21) proteins in adipocytes.
When 3T3-L1 preadipocytes reached 80% confluence, they were seeded at 5×10^3 cells/well in a 96-well plate and used for the experiment. Two days after reaching confluence, the medium was replaced with a differentiation-inducing medium to induce the differentiation into adipocytes, and two days after the induction, the cells were cultured for 2 days in a medium containing 10% FBS and 10 μg/mL insulin, and then the medium was replaced with 10% FBS every 2 days until their differentiation into adipocytes. Once the differentiation was complete, the medium was replaced with a serum-free medium and cultured for 4 hours to induce starvation. The peptide complexes were treated at concentrations of 0.2 μg/mL, 2 μg/mL, and 20 μg/mL, incubated for 1 hour, dissolved by adding dissolution buffer thereto, and the proteins obtained by centrifugation at 4° C. and 12,000 rpm for 30 minutes were quantified using a BCA kit. […]

With “peptide complex: prepared by mixing equal amounts of the peptide of SEQ ID NO: 1 (LKTRN) and the peptide of SEQ ID NO: 2 (KGSATGWMA) (also: mixture of two peptides)”, the “phosphorylation of AMPKα” value is recorded as “increased”.
